Measurements published in publication PMC8235214, “Purification, Identification, Activity Evaluation, and Stability of Antioxidant Peptides from Alcalase Hydrolysate of Antarctic Krill (Euphausia superba) Proteins” (Marine Drugs, 2021).
Where two headings read alike, the source gives them in different places. Ends that are not written are not given here. Peptide text beside a SMILES is read from it.

Experiments:
[1] = cited from earlier work
Source text: However, no significant difference was found among the EC50 values of ESP6, ESP7, and ESP8 (p > 0.05).

[2] = cited from earlier work; remark: listed apart in the source
Source text: In the organism, HO· can oxidize and damage most of the macromolecules due to its high reactivity characteristic. Therefore, looking for natural antioxidant peptides with high HO· scavenging ability is key for discovering new antioxidants. […] In addition, EC50 values of ESP6, ESP7, and ESP8 were also lower ...

[3] = Simulated GI digestion stability (pepsin then pancreatin, DPPH· scavenging read-out); type: in vitro ADME; conditions: peptide 1.0 mg/mL; two-stage model, pepsin 120 min then pancreatin 60 min (0 to 180 min); mean ± SD, n = 3
Description: The influence of simulate GI digestion on the stability of ESP6, ESP7, and ESP8 was evaluated by the two-stage digestion model. In short, ESP6, ESP7, and ESP8 were separately treated with pepsin for 120 min and pancreatin for 60 min.
The DPPH· scavenging ratio (%) of ESP6, ESP7, and ESP8 at 1.0 mg/mL were measured at the set time to analyze their stability.

[4] = cited from earlier work; for Stability under thermal and pH treatments (HO· scavenging activity): high temperature (>60 °C) and strong acid and alkali conditions; for Stability under thermal and pH treatments: 25–100 °C or pH 3–11 treatments
Source text: The pH and thermal stability of antioxidant peptides are key properties for their applications in food and health products, and tolerance property on simulated GI digestion treatments can help to assess the rate of metabolism and timeliness of antioxidant peptides in vivo [25, 52, 68, 69].

[5] = design: method as in 6 sources, ref 36 = [36]; PMID 23411302; doi:10.1016/j.foodchem.2012.12.002; 36. Wang B. Li L. Chi C.F. Ma J.H. Luo H.Y. Xu Y.F. Purification and Characterization of a novel antioxidant peptide derived from blue mussel ( Mytilus edulis ) protein hydrolysate Food Chem. 2013 138 ||| ref 45 = [45]; doi:10.1016/j.foodres.2010.02.009; 45. You L. Zhao M. Regenstein J.M. Ren J. Purification and identification of antioxidative peptides from loach ( Misgurnus anguillicaudatus ) protein hydrolysate by consecutive chromatography and elec ||| ref 46 = [46]; PMID 22652579; doi:10.1016/j.peptides.2012.05.013; 46. Wang B. Li Z.R. Chi C.F. Zhang Q.H. Luo H.Y. Preparation and evaluation of antioxidant peptides from ethanol-soluble proteins hydrolysate of Sphyrna lewini muscle Peptides 2012 36 240 250 10.1016/ ||| ref 49 = [49]; PMID 31058809; doi:10.3390/md17050263; 49. Pan X.Y. Wang Y.M. Li L. Chi C.F. Wang B. Four antioxidant peptides from protein hydrolysate of red stingray ( Dasyatis akajei ) cartilages: Isolation, identification, and in vitro activity evalua ||| ref 22 = [22]; PMID 32164197; doi:10.3390/md18030153; 22. Hu X.M. Wang Y.M. Zhao Y.Q. Chi C.F. Wang B. Antioxidant peptides from the protein hydrolysate of monkfish ( Lophius litulon ) muscle: Purification, identification, and cytoprotective function on ||| ...; conditions: cited from earlier work
[6] = peptides from swim bladders of miiuy croaker
[7] = peptides from miiuy croaker swim bladders
[8] = peptides from skipjack tuna heads
[9] = peptides from giant squid protein
[10] = peptides from Sphyrna lewini muscle
[11] = peptides from Mytilus edulis and scales of croceine croaker
[12] = peptides from red stingray cartilages
[13] = peptides from Raja porosa cartilage

Molecule: Phe-Ser-Gly-Leu-Arg [FSGLR, antioxidant peptide from miiuy croaker swim bladders]
- EC50 on O2−· [1, 6]: 3350 ± 200 µg/mL
- EC50 on HO· [2, 7]: 2450 ± 250 µg/mL

Molecule: CC(C)C[C@H](NC(=O)[C@@H](N)CO)C(=O)N1CCC[C@H]1C(=O)N[C@@H](Cc1ccc(O)cc1)C(=O)O [ESP6, Ser-Leu-Pro-Tyr] (H-SLPY-OH)
- Decrease of DPPH· scavenging ratio by simulated GI digestion [3]: 6.41 ± 0.96%

Molecule: Glu-Met-Gly-Pro-Ala [EMGPA, antioxidant peptide from skipjack tuna heads]
- EC50 on O2−· [1, 8]: 710 µg/mL
- Stability under thermal and pH treatments (HO· scavenging activity) [4]: significantly influenced

Molecule: Tyr-Trp-Asp-Ala-Trp [YWDAW, antioxidant peptide from monkfish muscle]
- EC50 on DPPH· ([5]; peptides from monkfish muscle): 510 µg/mL

Molecule: Pro-Ser-Tyr-Val [PSYV, antioxidant peptide from weatherfish loach]
- EC50 on DPPH· ([5]; peptide from weather loach): 17000 µg/mL
- EC50 on HO· ([2]; peptide from weatherfish loach): 2640 µg/mL

Molecule: FDSGPAGVL [FDSGPAGVL, antioxidant peptide from giant squid protein]
- EC50 on HO· [2, 9]: 78 µg/mL

Molecule: FPYLRH [FPYLRH, antioxidant peptide from miiuy croaker swim bladders]
- EC50 on DPPH· [5, 7]: 510 ± 30 µg/mL
- EC50 on HO· [2, 7]: 680 ± 50 µg/mL

Molecule: Tyr-Leu-Pro-Tyr-Ala [YLPYA, antioxidant peptide from swim bladders of miiuy croaker]
- EC50 on O2−· [1, 6]: 3610 ± 250 µg/mL

Molecule: Trp-Asp-Arg [WDR, antioxidant peptide from Sphyrna lewini muscle]
- EC50 on O2−· [1, 10]: 90 µg/mL
- EC50 on DPPH· [5, 10]: 3630 µg/mL
- EC50 on HO· [2, 10]: 150 µg/mL

Molecule: Trp-Glu-Gly-Pro-Lys [WEGPK, antioxidant peptide from heads of bluefin leatherjacket]
- EC50 on HO· ([2]; peptide from heads of bluefin leatherjacket): 5567 µg/mL

Molecule: GPAGPAG [GPAGPAG, antioxidant peptide from scales of croceine croaker]
- EC50 on DPPH· [5, 11]: 675 µg/mL

Molecule: ATSHH
- Stability under thermal and pH treatments (DPPH· scavenging activity) ([4]; 50–90 °C and strong acids and bases): will decrease its partial DPPH· scavenging activity

Molecule: EDIVCW [EDIVCW, antioxidant peptide from monkfish muscle]
- EC50 on DPPH· ([5]; peptides from monkfish muscle): 390 µg/mL

Molecule: Trp-Met-Gly-Pro-Tyr [WMGPY, antioxidant peptide from skipjack tuna heads]
- EC50 on O2−· [1, 8]: 380 µg/mL
- Stability under thermal and pH treatments (HO· scavenging activity) [4]: significantly influenced

Molecule: C[C@H](NC(=O)[C@H](CCC(=O)O)NC(=O)[C@H](Cc1ccc(O)cc1)NC(=O)[C@@H](N)CCC(=O)O)C(=O)O [ESP8, Glu-Tyr-Glu-Ala] (H-EYEA-OH)
- Decrease of DPPH· scavenging ratio by simulated GI digestion [3]: 6.48 ± 1.03%

Molecule: Val-Pro-Arg [VPR]
- EC50 on DPPH· [5, 12]: 4610 µg/mL

Molecule: GPAGDY [GPAGDY, antioxidant peptide from Raja porosa cartilage]
- EC50 on O2−· [1, 13]: 1660 µg/mL

Molecule: Pro-Tyr-Phe-Asn-Lys [PYFNK, antioxidant peptide from Sphyrna lewini muscle]
- EC50 on O2−· [1, 10]: 110 µg/mL
- EC50 on DPPH· [5, 10]: 4110 µg/mL
- EC50 on HO· [2, 10]: 240 µg/mL

Molecule: WAFAPA
- Stability under thermal and pH treatments [4]: high stability

Molecule: Phe-Thr-Gly-Met-Asp [FTGMD, antioxidant peptide from miiuy croaker swim bladders]
- EC50 on O2−· [1, 6]: 3040 ± 270 µg/mL
- EC50 on HO· [2, 7]: 2310 ± 120 µg/mL

Molecule: Met-Ile-Leu-Met-Arg [MILMR, antioxidant peptide from croceine croaker muscle]
- EC50 on O2−· ([1]; peptide from croceine croaker muscle): 993 µg/mL

Molecule: Gly-Phe-Pro-Ser-Gly [GFPSG, antioxidant peptide from scales of croceine croaker]
- EC50 on DPPH· [5, 11]: 283 µg/mL

Molecule: Leu-Glu-Glu-Glu-Glu [LEEEE, antioxidant peptide from red stingray cartilages]
- EC50 on DPPH· [5, 12]: 3690 µg/mL

Molecule: Trp-Met-Phe-Asp-Trp [WMFDW, antioxidant peptide from skipjack tuna heads]
- EC50 on O2−· [1, 8]: 560 µg/mL
- Stability under thermal and pH treatments (HO· scavenging activity) [4]: significantly influenced

Molecule: Gly-Phe-Tyr-Ala-Ala [GFYAA, antioxidant peptide from miiuy croaker swim bladders]
- EC50 on O2−· [1, 6]: 3030 ± 190 µg/mL
- EC50 on HO· [2, 7]: 2350 ± 220 µg/mL

Molecule: CSCC[C@H](NC(=O)[C@@H]1CCCN1C(=O)[C@@H]1CCCN1C(=O)[C@H](Cc1ccc(O)cc1)NC(=O)[C@@H](N)CCC(N)=O)C(=O)N[C@@H](CCC(N)=O)C(=O)N[C@@H](Cc1ccc(O)cc1)C(=O)O [ESP7, Gln-Tyr-Pro-Pro-Met-Gln-Tyr] (H-QYPPMQY-OH)
- Decrease of DPPH· scavenging ratio by simulated GI digestion [3]: 8.36 ± 0.59%

Molecule: Tyr-Phe-Leu-Trp-Pro [YFLWP, antioxidant peptide from miiuy croaker muscle]
- EC50 on O2−· ([1]; peptide from miiuy croaker muscle): 3080 µg/mL

Molecule: Val-Pro-Asp-Asp [VPDD, antioxidant peptide from miiuy croaker swim bladders]
- EC50 on HO· [2, 7]: 2850 ± 190 µg/mL

Molecule: Ile-Glu-Glu-Glu-Gln [IEEEQ, antioxidant peptide from red stingray cartilages]
- EC50 on DPPH· [5, 12]: 4010 µg/mL

Molecule: NGPLQAGQPGER [NGPLQAGQPGER, antioxidant peptide from giant squid protein]
- EC50 on HO· [2, 9]: 123 µg/mL

Molecule: VPDDD [antioxidant peptide from swim bladders of miiuy croaker]
- EC50 on O2−· [1, 6]: 4110 ± 310 µg/mL

Molecule: IVAGPQ [IVAGPQ, antioxidant peptide from skate (Raja porosa) cartilages]
- EC50 on O2−· [1, 13]: 1820 µg/mL
- EC50 on HO· ([2]; peptide from skate cartilages): 5030 µg/mL

Molecule: Tyr-Pro-Pro-Ala-Lys [YPPAK, antioxidant peptide from blue mussel (Mytilus edulis)]
- EC50 on O2−· ([1]; peptide from blue mussel): 72 µg/mL
- EC50 on DPPH· [5, 11]: 2620 µg/mL
- EC50 on HO· ([2]; peptide from blue mussel): 228 µg/mL

Molecule: MYPGLA
- Stability under thermal and pH treatments [4]: high stability

Molecule: FIMGPY [FIMGPY, antioxidant peptide from Raja porosa cartilage]
- EC50 on O2−· [1, 13]: 1610 µg/mL

Molecule: Gly-Ile-Glu-Trp-Ala [GIEWA, antioxidant peptide from miiuy croaker swim bladders]
- EC50 on DPPH· [5, 7]: 780 ± 50 µg/mL

Molecule: Met-Glu-Pro-Val-Trp [MEPVW, antioxidant peptide from monkfish muscle]
- EC50 on O2−· ([1]; peptide from monkfish muscle): 940 µg/mL
- EC50 on DPPH· ([5]; peptides from monkfish muscle): 620 µg/mL
